Measurements reported in patent US20220041647A1, “ESTRA-1,3,5(10)-TRIENE COMPOUNDS CONDENSED IN POSITION 16(17) WITH A PYRAZOLE RING AS INHIBITORS OF 17-HSD1” (FORENDO PHARMA LTD, priority 2018, published 2022).

Legend:
[1] = target: T1, recombinant human 17β-HSD1 (Homo sapiens, UniProt P14061); experiment: Inhibition of recombinant human 17β-HSD1 (estrone to estradiol conversion, HPLC/radioactivity); type: biochemical; settings: compound 100 nM; 30 nM estrone, 1 mM NADPH, 30 min RT
T1 construct: made in house; host or cells: Sd9 (Sf9) insect cells, baculovirus (Bac to Bac Expression System)
T1 sequence (P14061 1-328): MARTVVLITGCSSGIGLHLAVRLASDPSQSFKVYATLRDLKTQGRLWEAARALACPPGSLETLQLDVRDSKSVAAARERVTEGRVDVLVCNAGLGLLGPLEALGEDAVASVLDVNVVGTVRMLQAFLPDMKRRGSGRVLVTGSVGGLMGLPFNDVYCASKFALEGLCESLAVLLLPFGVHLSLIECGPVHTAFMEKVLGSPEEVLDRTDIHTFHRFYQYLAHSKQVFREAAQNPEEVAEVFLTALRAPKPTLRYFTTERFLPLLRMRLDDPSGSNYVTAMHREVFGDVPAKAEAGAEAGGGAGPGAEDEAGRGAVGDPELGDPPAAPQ
How it was run: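 Microsomal human 17β-HSD1 from Sf9 baculovirus (1 μg/ml) was incubated 30 min at RT in 20 mM KH2PO4 pH 7.4 with 30 nM ^3H-estrone, 1 mM NADPH and inhibitor at 1 μM or 0.1 μM (1% DMSO). Estrone and estradiol were separated by HPLC with radioactivity detection. % inhibition = 100 − % conversion relative to uninhibited control.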

[2] = Metabolic stability assay, human hepatocyte incubations; type: in vitro ADME; settings: compound 1 μM, human hepatocytes, 0-60 min at 37° C.; read-out: Human hepatocytes MetStab T½ min
How it was run: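 Compounds at 1 μM (1% DMSO final) incubated with human hepatocytes at 37 °C for 0, 10, 20, 40 and 60 min. Parent measured by LC-MS/MS as % remaining versus time zero; T1/2 obtained by regression of the disappearance curve.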

Row | SMILES | inhibition at 0.1 µM [1] | half-life at 1 μM [2]
1 | CN(C)C(=O)c1ccc(NC(=O)CC[C@@H]2c3c[nH]nc3[C@@]3(C)CCC4c5ccc(Cl)cc5CCC4C23)nc1 (stereo partly drawn) [Compound 126, 6-(3-((8aS,12S)-4-chloro-8a-methyl-1,2,6b,7,8,8a,10,12,12a,12b-decahydronaphtho[2′,1′:4,5]indeno[1,2-c]pyrazol-12-yl)propanamido)-N,N-dimethylnicotinamide] | 89% | 147 min
2 | CC(C)c1ccc(NC(=O)CC[C@@H]2c3c[nH]nc3[C@@]3(C)CCC4c5ccccc5CCC4C23)nc1 (stereo partly drawn) [Compound 138, N-(5-isopropylpyridin-2-yl)-3-((8aS,12S)-8a-methyl-1,2,6b,7,8,8a,10,12,12a,12b-decahydronaphtho[2′,1′:4,5]indeno[1,2-c]pyrazol-12-yl)propanamide] | 94% | 51 min
3 | COc1ccc(NC(=O)CC[C@@H]2c3c[nH]nc3[C@@]3(C)CCC4c5ccccc5CCC4C23)nc1 (stereo partly drawn) [Compound 141, N-(5-methoxypyridin-2-yl)-3-((8aS,12S)-8a-methyl-1,2,6b,7,8,8a,10,12,12a,12b-decahydronaphtho[2′,1′:4,5]indeno[1,2-c]pyrazol-12-yl)propanamide] | 93% | 45 min
4 | COc1ccc(NC(=O)CC[C@@H]2c3c[nH]nc3[C@@]3(C)CCC4c5ccccc5CCC4C23)nn1 (stereo partly drawn) [Compound 156, N-(6-methoxypyridazin-3-yl)-3-((8aS,12S)-8a-methyl-1,2,6b,7,8,8a,10,12,12a,12b-decahydronaphtho[2′,1′:4,5]indeno[1,2-c]pyrazol-12-yl)propanamide] | 81% | 93 min
5 | C[C@]12CCC3c4ccccc4CCC3C1[C@H](CCC(=O)Nc1ccc(F)cn1)c1c[nH]nc12 (stereo partly drawn) [Compound 159, N-(5-fluoropyridin-2-yl)-3-((8aS,12S)-8a-methyl-1,2,6b,7,8,8a,10,12,12a,12b-decahydronaphtho[2′,1′:4,5]indeno[1,2-c]pyrazol-12-yl)propanamide] | 90% | 77 min
6 | C[C@]12CCC3c4ccccc4CCC3C1[C@H](CCC(=O)Nc1cc(F)ccn1)c1c[nH]nc12 (stereo partly drawn) [Compound 162, N-(4-fluoropyridin-2-yl)-3-((8aS,12S)-8a-methyl-1,2,6b,7,8,8a,10,12,12a,12b-decahydronaphtho[2′,1′:4,5]indeno[1,2-c]pyrazol-12-yl)propanamide] | 91% | 83 min
7 | COc1ccnc(NC(=O)CC[C@@H]2c3c[nH]nc3[C@@]3(C)CCC4c5ccccc5CCC4C23)c1 (stereo partly drawn) [Compound 165, N-(4-methoxypyridin-2-yl)-3-((8aS,12S)-8a-methyl-1,2,6b,7,8,8a,10,12,12a,12b-decahydronaphtho[2′1′:4,5]indeno[1,2-c]pyrazol-12-yl)propanamide] | 85% | 44 min
8 | Cc1ccnc(NC(=O)CC[C@@H]2c3c[nH]nc3[C@@]3(C)CCC4c5ccccc5CCC4C23)c1 (stereo partly drawn) [Compound 168, 3-((8aS,12S)-8a-methyl-1,2,6b,7,8,8a,10,12,12a,12b-decahydronaphtho[2′,1′:4,5]indeno[1,2-c]pyrazol-12-yl)-N-(4-methylpyridin-2-yl)propanamide] | 90% | 68 min
9 | C[C@]12CCC3c4ccccc4CCC3C1[C@H](CCC(=O)Nc1ccccn1)c1c[nH]nc12 (stereo partly drawn) [Compound 171, 3-((8aS,12S)-8a-methyl-1,2,6b,7,8,8a,10,12,12a,12b-decahydronaphtho[2′,1′:4,5]indeno[1,2-c]pyrazol-12-yl)-N-(pyridin-2-yl)propanamide] | 89% | 73 min
10 | C[C@]12CCC3c4ccccc4CCC3C1[C@H](CCC(=O)Nc1cnccn1)c1c[nH]nc12 (stereo partly drawn) [Compound 189, 3-((8aS,12S)-8a-methyl-1,2,6b,7,8,8a,10,12,12a,12b-decahydronaphtho[2′,1′:4,5]indeno[1,2-c]pyrazol-12-yl)-N-(pyrazin-2-yl)propanamide] | 90% | 30 min
11 | C[C@]12CCC3c4cccc(F)c4CCC3C1[C@H](CCC(=O)NC1CCCCC1)c1c[nH]nc12 (stereo partly drawn) [Compound 207, N-cyclohexyl-3-((8aS,12S)-3-fluoro-8a-methyl-1,2,6b,7,8,8a,10,12,12a,12b-decahydronaphtho[2′,1′:4,5]indeno[1,2-c]pyrazol-12-yl)propanamide] | 95% | 18 min
12 | C[C@]12CCC3c4cccc(F)c4CCC3C1[C@H](CCC(=O)N1CCCC1)c1c[nH]nc12 (stereo partly drawn) [Compound 210, 3-((8aS,12S)-3-fluoro-8a-methyl-1,2,6b,7,8,8a,10,12,12a,12b-decahydronaphtho[2′,1′:4,5]indeno[1,2-c]pyrazol-12-yl)-1-(pyrrolidin-1-yl)propan-1-one] | 94% | 11 min
13 | CCN(CC)C(=O)CC[C@@H]1c2c[nH]nc2[C@@]2(C)CCC3c4cccc(F)c4CCC3C12 (stereo partly drawn) [Compound 216, N,N-diethyl-3-((8aS,12S)-3-fluoro-8a-methyl-1,2,6b,7,8,8a,10,12,12a,12b-decahydronaphtho[2′,1′:4,5]indeno[1,2-c]pyrazol-12-yl)propanamide] | 93% | 8 min
14 | C[C@]12CCC3c4cccc(F)c4CCC3C1[C@H](CCC(=O)N1CCC3(CCOCC3)C1)c1c[nH]nc12 (stereo partly drawn) [Compound 219, 3-((8aS,12S)-3-fluoro-8a-methyl-1,2,6b,7,8,8a,10,12,12a,12b-decahydronaphtho[2′,1′:4,5]indeno[1,2-c]pyrazol-12-yl)-1-(8-oxa-2-azaspiro[4.5]decan-2-yl)propan-1-one] | 91% | 7 min
15 | CN(C)C(=O)CC[C@@H]1c2c[nH]nc2[C@@]2(C)CCC3c4cccc(F)c4CCC3C12 (stereo partly drawn) [Compound 222, 3-((8aS,12S)-3-fluoro-8a-methyl-1,2,6b,7,8,8a,10,12,12a,12b-decahydronaphtho[2′,1′:4,5]indeno[1,2-c]pyrazol-12-yl)-N,N-dimethylpropanamide] | 91% | 12 min
16 | C[C@]12CCC3c4cccc(F)c4CCC3C1[C@H](CCC(=O)Nc1ncccc1F)c1c[nH]nc12 (stereo partly drawn) [Compound 231, 3-((8aS,12S)-3-fluoro-8a-methyl-1,2,6b,7,8,8a,10,12,12a,12b-decahydronaphtho[2′,1′:4,5]indeno[1,2-c]pyrazol-12-yl)-N-(3-fluoropyridin-2-yl)propanamide] | 86% | 29 min
